US10793564B2, “Amino acid compounds and methods of use” (Pliant Therapeutics, Inc., priority 2018, dated 2020)

Biological target: recombinant human integrin αVβ6 (Homo sapiens (Human), UniProt P06756+P18564)
Assay: Solid phase integrin αVβ6 binding assay
Conditions: inhibition of recombinant TGFβ1 LAP binding to coated integrin, IC50 presented in four ranges, read-out: αvβ6 Inhibition IC50 (nM) - range
Procedure: (§1) Microplates were coated with recombinant human integrin αVβ6 (2 μg/mL) in PBS (100 μL/well 25° C., overnight). The coating solution was removed, washed with wash buffer (0.05% Tween 20; 0.5 mM MnCl2; in 1×TBS). The plate was blocked with 200 μL/well of Block Buffer (1% BSA; 5% sucrose; 0.5 mM MnCl2; in 1×TBS) at 37° C. for 2 h. Dilutions of testing compounds and recombinant TGFβ1 LAP (0.67 μg/mL) in binding buffer (0.05% BSA; 2.5% sucrose; 0.5 mM MnCl2; in 1×TBS) were added. The plate was incubated for 2 hours at 25° C., washed, and incubated for 1 hour with Biotin-Anti-hLAP. Bound antibody was detected by peroxidase-conjugated streptavidin. The IC50 values for testing compounds were calculated by a four-parameter logistic regression.
The compounds tested were compound samples prepared according to procedures described in the Synthetic Examples section, with the stereochemical purity as indicated in the Examples.
as §1, with “A third series of exemplary compounds was selected for testing in the solid phase integrin αVβ6 binding assay. The compounds tested were compound samples prepared according to procedures described in the Synthetic Examples section, with the stereochemical purity as indicated in the Examples. As in Example B1, microplates were” for “Microplates were”, “(0.67 g/mL)” for “(0.67 μg/mL)”

recombinant human integrin αVβ6, sequence (P06756 31-992): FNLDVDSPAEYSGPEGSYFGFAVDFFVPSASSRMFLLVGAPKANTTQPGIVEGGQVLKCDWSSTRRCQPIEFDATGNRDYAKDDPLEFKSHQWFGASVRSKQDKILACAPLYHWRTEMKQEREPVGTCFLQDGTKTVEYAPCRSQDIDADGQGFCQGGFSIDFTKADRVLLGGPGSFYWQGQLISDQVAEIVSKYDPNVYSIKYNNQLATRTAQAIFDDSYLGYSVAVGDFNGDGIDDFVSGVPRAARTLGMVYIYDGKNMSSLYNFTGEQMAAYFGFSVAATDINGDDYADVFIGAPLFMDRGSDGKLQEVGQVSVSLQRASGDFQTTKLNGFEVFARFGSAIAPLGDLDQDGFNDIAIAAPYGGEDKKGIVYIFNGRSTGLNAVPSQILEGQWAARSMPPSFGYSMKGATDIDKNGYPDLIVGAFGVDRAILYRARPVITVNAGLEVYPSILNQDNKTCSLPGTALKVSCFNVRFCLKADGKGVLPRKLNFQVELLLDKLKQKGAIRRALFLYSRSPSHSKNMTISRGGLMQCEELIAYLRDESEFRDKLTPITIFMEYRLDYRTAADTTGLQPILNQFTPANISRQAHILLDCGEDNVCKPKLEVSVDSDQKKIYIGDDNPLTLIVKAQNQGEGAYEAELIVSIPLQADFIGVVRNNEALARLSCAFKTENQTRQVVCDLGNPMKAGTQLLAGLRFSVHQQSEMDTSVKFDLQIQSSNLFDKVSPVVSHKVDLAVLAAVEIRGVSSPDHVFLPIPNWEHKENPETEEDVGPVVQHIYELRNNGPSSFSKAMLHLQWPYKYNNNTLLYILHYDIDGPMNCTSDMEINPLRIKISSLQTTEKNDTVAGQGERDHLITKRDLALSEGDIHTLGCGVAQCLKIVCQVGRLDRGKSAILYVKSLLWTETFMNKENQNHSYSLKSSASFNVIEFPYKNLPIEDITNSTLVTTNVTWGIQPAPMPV
recombinant human integrin αVβ6, sequence (P18564 22-707): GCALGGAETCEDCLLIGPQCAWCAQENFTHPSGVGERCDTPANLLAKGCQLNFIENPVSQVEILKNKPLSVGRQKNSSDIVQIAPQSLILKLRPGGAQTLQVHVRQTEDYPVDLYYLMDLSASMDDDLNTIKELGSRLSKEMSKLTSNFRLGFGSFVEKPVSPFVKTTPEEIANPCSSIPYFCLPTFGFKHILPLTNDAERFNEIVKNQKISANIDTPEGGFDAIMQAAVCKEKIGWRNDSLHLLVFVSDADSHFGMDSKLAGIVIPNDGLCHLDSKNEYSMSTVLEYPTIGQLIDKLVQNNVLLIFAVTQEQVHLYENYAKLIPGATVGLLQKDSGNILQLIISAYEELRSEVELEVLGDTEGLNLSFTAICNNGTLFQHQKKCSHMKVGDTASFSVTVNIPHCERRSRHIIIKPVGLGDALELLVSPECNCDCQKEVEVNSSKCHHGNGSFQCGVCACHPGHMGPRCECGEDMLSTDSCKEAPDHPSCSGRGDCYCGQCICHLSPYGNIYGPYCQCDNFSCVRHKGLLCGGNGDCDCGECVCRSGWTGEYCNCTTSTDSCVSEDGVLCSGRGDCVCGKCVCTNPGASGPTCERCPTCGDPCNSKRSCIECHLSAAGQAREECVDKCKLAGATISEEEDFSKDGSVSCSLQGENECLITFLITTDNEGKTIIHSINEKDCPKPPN

| Compound | IC50 [nM] |
| --- | --- |
| COCCN(CCCCc1ccc2c(n1)NCCC2)CC[C@H](Nc1ccnc2ccccc12)C(=O)O [Compound 36, (S)-4-((2-methoxyethyl) (4-(5,6,7,8-tetrahydro-1,8-naphthyridin-2-yl)butyl)amino)-2-(quinolin-4-ylamino) butanoic Acid] | > 1000 |
| O=C(O)[C@H](CCN(CCCCc1ccc2c(n1)NCCC2)C1CC(F)(F)C1)Nc1ncnc2ccccc12 [Compound 9, (S)-4-((3,3-difluorocyclobutyl) (4-(5,6,7,8-tetrahydro-1,8-naphthyridin-2-yl)butyl)amino)-2-(quinazolin-4-ylamino) butanoic Acid] | > 1000 |
| O=C(O)[C@H](CCN(CCCCc1ccc2c(n1)NCCC2)CC(F)F)Nc1ncnc2ccccc12 [Compound 8, (S)-4-((2,2-difluoroethyl) (4-(5,6,7,8-tetrahydro-1,8-naphthyridin-2-yl)butyl)amino)-2-(quinazolin-4-ylamino) butanoic Acid] | 50 to 250 |
| COCCN(CCCCc1ccc2c(n1)NCCC2)CC[C@H](Nc1ncnc2ccc(F)cc12)C(=O)O [Compound 19, (S)-2-((6-fluoroquinazolin-4-yl)amino)-4-((2-methoxyethyl) (4-(5,6,7,8-tetrahydro-1,8-naphthyridin-2-yl)butyl)amino) butanoic Acid] | < 50 |
| O=C(O)[C@H](CCN(CCCCc1ccc2c(n1)NCCC2)CCOc1ccccc1)Nc1ncnc2ccccc12 [Compound 28, (S)-4-((2-phenoxyethyl) (4-(5,6,7,8-tetrahydro-1,8-naphthyridin-2-yl)butyl)amino)-2-(quinazolin-4-ylamino) butanoic Acid] | < 50 |

Second part, the molecule after the results:

| IC50 [nM] | Compound |
| --- | --- |
| < 50 | COCCN(CCCCc1ccc2c(n1)NCCC2)CC[C@H](Nc1nccnc1C#N)C(=O)O [Compound 67, (S)-2-((3-cyanopyrazin-2-yl)amino)-4-((2-methoxyethyl) (4-(5,6,7,8-tetrahydro-1,8-naphthyridin-2-yl)butyl)amino) butanoic Acid] |
| < 50 | O=C(O)[C@H](CCN(CCCCc1ccc2c(n1)NCCC2)CCOCC(F)(F)F)Nc1ncnc2cccnc12 [Compound 51, (S)-2-(pyrido[3,2-d]pyrimidin-4-ylamino)-4-((4-(5,6,7,8-tetrahydro-1,8-naphthyridin-2-yl)butyl) (2-(2,2,2-trifluoroethoxy)ethyl)amino) butanoic Acid] |
| < 50 | CO[C@H](C)CN(CCCCc1ccc2c(n1)NCCC2)CC[C@H](Nc1ncc(C(F)(F)F)cn1)C(=O)O [Compound 69, (S)-4-(((R)-2-methoxypropyl) (4-(5,6,7,8-tetrahydro-1,8-naphthyridin-2-yl)butyl)amino)-2-((5-(trifluoromethyl)pyrimidin-2-yl)amino) butanoic Acid] |
| < 50 | O=C(O)[C@H](CCN(CCO)CCCCc1ccc2c(n1)NCCC2)Nc1ncnc2ccccc12 [Compound 75, (S)-4-((2-hydroxyethyl) (4-(5,6,7,8-tetrahydro-1,8-naphthyridin-2-yl)butyl)amino)-2-(quinazolin-4-ylamino) butanoic Acid] |
| < 50 | Cc1ccc(OCCN(CCCCc2ccc3c(n2)NCCC3)CC[C@H](Nc2ncnc3cccnc23)C(=O)O)cn1 [Compound 57, (S)-4-((2-((6-methylpyridin-3-yl)oxy)ethyl) (4-(5,6,7,8-tetrahydro-1,8-naphthyridin-2-yl)butyl)amino)-2-(pyrido[3,2-d]pyrimidin-4-ylamino) butanoic Acid] |
| < 50 | O=C(O)[C@H](CCN(CCCCc1ccc2c(n1)NCCC2)CCOc1ccccn1)Nc1ncnc2ccccc12 [Compound 49, (S)-4-((2-(pyridin-2-yloxy)ethyl) (4-(5,6,7,8-tetrahydro-1,8-naphthyridin-2-yl)butyl)amino)-2-(quinazolin-4-ylamino) butanoic Acid] |
| < 50 | O=C(O)[C@H](CCN(CCCCc1ccc2c(n1)NCCC2)CCOc1ccccc1)Nc1nc(-c2cccnc2)nc2ccccc12 [Compound 94, (S)-4-((2-phenoxyethyl) (4-(5,6,7,8-tetrahydro-1,8-naphthyridin-2-yl)butyl)amino)-2-((2-(pyridin-3-yl)quinazolin-4-yl)amino) butanoic Acid] |
